Results on 1 compound are retold here after patent US5610185A, “Method for the treatment of hyperproliferative epithelial skin diseases by topical application of hydroxylated aromatic protein cross-linking compounds” (The United States of America as represented by the …, priority 1995, dated 1997).

“Also recorded” adds a separate entry of the source.

For series [1], the system named is 308 cells (benign neoplastic mouse keratinocytes). Description: Cornified envelope (cross-linked protein) assay, 308 cells. Format: cell-based. Conditions: 308 (papilloma), 48 h, 0.1-1 mM. From the text:
(§1) FIG. 1. MC Increases Cross-linked Protein in Epidermal Cell Lines. Black squares represent HPV 18 human epithelial keratinocytes; black circles represent SV 40 infected human keratinocytes; black triangles represent (SQCC-Y1) cells; white triangles represent (SP-1) benign tumor mouse keratinocytes; white squares represent (308 cells) benign mouse keratinocytes; and white circles represent (I-7) cells mouse squamous cell carcinoma.
(§2) Primary mouse keratinocytes were isolated from BALB/c newborn mouse skin. Primary keratinocytes, the benign neoplastic keratinocyte cell lines 308 and SP-1 (Strickland et al, Cancer Res., 48, 165-169, 1988) and the mouse squamous cell carcinoma line 1-7 (Greenhalgh et al., Proc. Natl. Acad. Sci., 87, 643-647, 1990) were grown in Eagle's minimal essential medium with 8% fetal calf serum (FCS) (chelexed) and penicillin 20 iu/ml, streptomycin 20 ug/ml (P/S). Unless otherwise indicated, the Ca^2+ concentration in medium was adjusted to 0.05 mM (Hennings et al., Cells, 19, 245-254, 1980). […]
(§3) Cells were incubated with MC for 48 hours, then cross-linked protein was isolated and measured as described in Example 1.
(§4) The assay measures insoluble cross-linked protein envelopes as described (Hough-Monroe et al. Analytical biochem., 199, 25-28, 1991), with modifications as follows. […] Absorbance of eluate was measured on a Titertek plate reader at 600 nm.

In series [2] the test system is I-7 mouse squamous cell carcinoma cells. Description: Cornified envelope (cross-linked protein) assay, I-7 cells. Format: cell-based. Conditions: I-7 (carcinoma), 48 h, 0.1-1 mM.
From the text: as §1, §2, §3, §4

Series [3] concerns A431 human epidermoid carcinoma cells. Description: Cornified envelope (cross-linked protein) assay, A431 cells. Format: cell-based.
From the text: FIG. 5. Cross-linked Protein Production vs Growth Inhibition in A431 ([…]) Cells. Cell growth is represented by black circles and crosslinked protein production by white circles. Results are ±SD (n=3) of one experiment, representative of three.
Primary mouse keratinocytes were isolated from BALB/c newborn mouse skin. Primary keratinocytes, the benign neoplastic keratinocyte cell lines 308 and SP-1 (Strickland et al, Cancer Res., 48, 165-169, 1988) and the mouse squamous cell carcinoma line 1-7 (Greenhalgh et al., Proc. Natl. Acad. Sci., 87, 643-647, 1990) were grown in Eagle's minimal essential medium with 8% fetal calf serum (FCS) (chelexed) and penicillin 20 iu/ml, streptomycin 20 ug/ml (P/S). […]
as §3, §4
Cells were seeded at low density and were treated with MC for 3 days. Cells were then counted and increase in cell number was compared to untreated controls, or cells were processed for cross-linked protein (FIG. 5).

A further series relates to transglutaminase. Description: Transglutaminase activity in primary mouse keratinocytes. It counts as cell-based. As to the method:
FIG. 7. […] Black columns represent untreated cells in 1.4 mM Ca^2+ medium; and hatched columns represent cells treated with 1 mM MC. Cytosol is represented by "C" and membrane fractions are represented by "M". Results are ±SD (n=2) and were repeated in a similar experiment.
One embodiment of the present invention uses an erbstatin analog, methyl 2,5-dihydroxycinnamate, which forms cross-linked protein envelopes in normal and neoplastic epithelial cells by a mechanism independent of tyrosine kinase inhibition. Methyl 2,5-dihydroxycinnamate (MC) is a tyrosine kinase inhibitor. To assess its ability to induce epithelial cell differentiation, crosslinked protein envelopes were measured after a 48 h incubation with agent. […] To confirm differentiation, MC-treated mouse primary keratinocytes were tested for transglutaminase (TGase) activity, inhibition of protein cross-linking by the TGase inhibitor LTB-2 and HPB-2 and incorporation of the fluorescent TGase substrate dansylcadaverine into envelopes. […] This effect, in concert with growth inhibitory properties, may be useful clinically in the topical treatment of warts or superficial neoplasias of the skin.
Mouse primary keratinocytes were incubated in medium with 1.4 mM Ca^2+ for the indicated times. MC-induced cross-linking commences within 4 hours (see FIG. 3). […]

The subject of a further series is athymic nude mouse skin. Description: Acute topical toxicity on athymic nude mouse skin. Format: in vivo. As to the method:
FIGS. 9A, 9B, 9C, 9D and 9E show color photographs. Topical Application of MC on Athymic Nude Mouse Skin. Histological sections were taken from paraffin-embedded tissue and were stained with hematoxylin and eosin. Panel a is vehicle control; panel b is 100 μM MC; panel c is 1 mM MC; panel d is 10 mM MC; and panel e is 100 mM MC. Magnification is 200x.
FIGS. 13A, 13B and 13C show color photographs of mice. […] Photographs were taken after animal sacrifice upon termination of the experiments.
Acute topical toxicity of MC was assessed by its application to athymic mouse skin and observation for inflammation, ulceration or other signs of toxicity after 5x weekly applications for 2 weeks and by microscopical analysis of paraffin-embedded sections of athymic mouse skin after MC application. Male nu/nu mice, 8 weeks old, were subdivided into 5 treatments groups and MC was administered topically in 10% DMSO in acetone vehicle. Mice were treated with a control vehicle, 100 μM MC, 1 mM MC, 10 mM MC or 100 mM MC. Treatment was 5 times per week for two weeks, after which animals were sacrificed and dorsal skin was fixed in Carnoy's solution at 4° C. for 24 hours followed by ethanol 100%. Histological sections were taken from paraffin-embedded tissue and were stained with hematoxylin and eosin. FIG. 13 illustrates the effect of MC on the skin of nude mice.
Male nu/nu mice, 8 weeks old, were subdivided into treatment groups and MC was administered topically to dorsal skin in 10% DMSO in acetone vehicle (25 μl). Treatment was 5 times per week for two weeks. […] MC itself is yellow-brown, so some discoloration would be expected due to drug deposition and accumulation at this high concentration.

The conditions of series [4]: Hori et al., J. Antibiot., 45, 280-282, 1992; cited from earlier work.

On to `COC(=O)C=Cc1cc(O)ccc1O` [MC, methyl 2,5-dihydroxycinnamate], for which the “cross-linked protein (envelope production)” value (“cross-linked protein” for short) in series [1] is “induced crosslinked envelope production; also recorded: increased cross-linked protein in a dose-dependent manner”. Moreover, in series [2], the “cross-linked protein” value is reported as “induced crosslinked envelope production; also recorded: increased cross-linked protein in a dose-dependent manner”. In addition, the “cross-linked protein” value in series [3] (A431, 48 h, 0.1-1 mM) is recorded as “induced crosslinked envelope production; also recorded: increased cross-linked protein in a dose-dependent manner”. Besides, the minimal effective concentration in series [3] (Homo sapiens, A-431, 72 h, A431, 3 days, read-out: concentration at which protein cross-linking is evident) is at least 250 µM. Moreover, the transglutaminase activity entry in the series with transglutaminase (1 mM MC, 4 hrs, cytosol and membrane fractions) was “not stimulated; also recorded: does not Increase Transglutaminase Activity”. Moreover, the “involvement of transglutaminase in the mode of action” value in the series with transglutaminase (TGase activity, TGase inhibitors LTB-2 and HPB-2, dansylcadaverine incorporation) is “refuted the involvement of TGase”. Further, in the series with athymic nude mouse skin (mouse, in vivo), the “microscopy: inflammatory infiltrates” value was “focal inflammatory infiltrates were visible”, the “microscopy: necrosis” value was “no obvious necrosis”, the “microscopy: vacuolation of epidermal cells” value was “some vacuolation of epidermal cells” and the “systemic toxicity or changes in skin at the application site” value is on record as “No changes were observed”. The “acute toxicity or inflammation by microscopy” value in the series with athymic nude mouse skin (up to 10 mM, topical, normal athymic mouse skin) is “not acutely toxic or inflammatory”. Moreover, the “half life in serum” value in series [4] is on record as “short”.
